Measurements as given in patent publication US20240116951A1, “HETEROCYCLIC COMPOUNDS AND USES THEREOF” (Kumquat Biosciences Inc., priority 2022, published 2024).

Tests used:
Format in all cases: binding
KRAS G12S = target: T1, KRAS G12S (Homo sapiens, UniProt P01116, G12S); assay: HTRF assay of K-Ras G12S interaction with SOS1 (PPI-HTRF); settings: 5 nM KRAS G12S, read-out: PPI-HTRF-5 nM KRAS G12S
T1 construct: made in house; host or cells: E. coli, e.g. BL21 (DE3)
Summary of the method: (§1)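 HTRF on GST-K-Ras/His-hSOS1 was measured after ≥10 min in pH 7.4 HEPES buffer. IC50 values were derived from the ratiometric emission signal.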

KRAS G12D = target: T2, KRAS G12D (Homo sapiens, UniProt P01116, G12D); assay: HTRF assay of K-Ras G12D interaction with SOS1 (PPI-HTRF); settings: HTRF, 5 nM KRAS G12D; read-out: PPI-HTRF-5 nM KRAS G12D
T2 construct: made in house; host or cells: E. coli, e.g. BL21 (DE3)
T2 sequence (P01116 1-188 isoform P01116-2 G12D): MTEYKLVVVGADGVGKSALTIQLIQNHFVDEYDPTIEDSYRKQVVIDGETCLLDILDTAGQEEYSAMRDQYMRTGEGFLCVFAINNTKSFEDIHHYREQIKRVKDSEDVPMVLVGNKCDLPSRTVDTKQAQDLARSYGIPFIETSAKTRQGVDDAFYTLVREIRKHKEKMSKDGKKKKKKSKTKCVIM
Summary of the method: as §1

KRAS WT = target: T3, KRAS WT (Homo sapiens, UniProt P01116); assay: HTRF assay of wildtype K-Ras interaction with SOS1 (PPI-HTRF); settings: HTRF, 5 nM KRAS WT; read-out: PPI-HTRF-5 nM KRAS WT
T3 construct: made in house; host or cells: E. coli, e.g. BL21 (DE3)
T3 sequence (P01116 1-188 isoform P01116-2): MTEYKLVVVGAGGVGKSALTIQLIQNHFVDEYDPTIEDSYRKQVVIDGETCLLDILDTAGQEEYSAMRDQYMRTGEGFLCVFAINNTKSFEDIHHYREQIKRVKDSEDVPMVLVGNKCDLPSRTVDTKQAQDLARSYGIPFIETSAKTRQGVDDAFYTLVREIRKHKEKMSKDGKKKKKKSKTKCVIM
Summary of the method: as §1

Measured: IC50

T1 sequence (P01116 1-188 isoform P01116-2 G12S): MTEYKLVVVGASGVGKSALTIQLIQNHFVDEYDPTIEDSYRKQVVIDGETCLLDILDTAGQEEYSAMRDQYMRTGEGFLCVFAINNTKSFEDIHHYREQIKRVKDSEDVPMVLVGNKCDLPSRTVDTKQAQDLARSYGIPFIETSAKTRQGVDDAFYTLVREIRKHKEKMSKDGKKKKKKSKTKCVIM

CC(C)=C(C#N)C(=O)N1CCC12CCN(c1nc(OC[C@@]34CCCN3C[C@H](F)C4)nc3c(F)c(-c4ccc(F)c5sc(N)c(C#N)c45)c(Cl)cc13)C2 (stereo partly drawn) [Compound 297, 2-amino-4-(6-chloro-4-(1-(2-cyano-3-methylbut-2-enoyl)-1,6-diazaspiro[3.4]octan-6-yl)-8-fluoro-2-(((2R,7aS)-2-fluorotetrahydro-1H-pyrrolizin-7a(5H)-yl)methoxy)quinazolin-7-yl)-7-fluorobenzo[b]thiophene-3-carbonitrile]
< 5 µM: all assays above

N#Cc1c(N)sc2c(F)ccc(-c3c(Cl)cc4c(N5CCC6(C5)N(C(=O)C5CC5(F)F)CC6(F)F)nc(OC[C@@]56CCCN5C[C@H](F)C6)nc4c3F)c12 (stereo partly drawn) [Compound 228, 2-amino-4-(6-chloro-4-(1-(2,2-difluorocyclopropane-1-carbonyl)-3,3-difluoro-1,6-diazaspiro[3.4]octan-6-yl)-8-fluoro-2-(((2R,7aS)-2-fluorotetrahydro-1H-pyrrolizin-7a(5H)-yl)methoxy)quinazolin-7-yl)-7-fluorobenzo[b]thiophene-3-carbonitrile]
< 5 µM: all assays above

Cc1cn(C(=O)N2CCC23CCN(c2nc(OC[C@@]45CCCN4C[C@H](F)C5)nc4c(F)c(-c5ccc(F)c6sc(N)c(C#N)c56)c(Cl)cc24)C3)nn1 (stereo partly drawn) [Compound 336, 2-amino-4-(6-chloro-8-fluoro-2-(((2R,7aS)-2-fluorotetrahydro-1H-pyrrolizin-7a(5H)-yl)methoxy)-4-(1-(4-methyl-1H-1,2,3-triazole-1-carbonyl)-1,6-diazaspiro[3.4]octan-6-yl)quinazolin-7-yl)-7-fluorobenzo[b]thiophene-3-carbonitrile]
< 5 µM: all assays above

C[C@H](Oc1nc(N2CC[C@@]3(CCN3C(=O)C3CC3(F)F)C2)c2cc(Cl)c(-c3ccc(F)c4sc(N)c(C#N)c34)c(F)c2n1)[C@@H]1CCCN1C (stereo partly drawn) [Compound 346, (4S)-2-amino-4-(6-chloro-4-((4R)-1-(2,2-difluorocyclopropane-1-carbonyl)-1,6-diazaspiro[3.4]octan-6-yl)-8-fluoro-2-((S)-1-((S)-1-methylpyrrolidin-2-yl)ethoxy)quinazolin-7-yl)-7-fluorobenzo[b]thiophene-3-carbonitrile]
< 5 µM: all assays above

C[C@H](Oc1nc(N2CCC3(CCN3C(=O)[C@@H]3C[C@H]3F)C2)c2cc(Cl)c(-c3ccc(F)c4sc(N)c(C#N)c34)c(F)c2n1)[C@@H]1CCCN1C (stereo partly drawn) [Compound 271, 2-amino-4-(6-chloro-8-fluoro-4-(1-((1S,2R)-2-fluorocyclopropane-1-carbonyl)-1,6-diazaspiro[3.4]octan-6-yl)-2-((S)-1-((S)-1-methylpyrrolidin-2-yl)ethoxy)quinazolin-7-yl)-7-fluorobenzo[b]thiophene-3-carbonitrile]
< 5 µM: all assays above

CCc1ncn(C(=O)N2CCC23CCN(c2nc(OC[C@@]45CCCN4C[C@H](F)C5)nc4c(F)c(-c5ccc(F)c6sc(N)c(C#N)c56)c(Cl)cc24)C3)n1 (stereo partly drawn) [Compound 314, 2-amino-4-(6-chloro-4-(1-(3-ethyl-1H-1,2,4-triazole-1-carbonyl)-1,6-diazaspiro[3.4]octan-6-yl)-8-fluoro-2-(((2R,7aS)-2-fluorotetrahydro-1H-pyrrolizin-7a(5H)-yl)methoxy)quinazolin-7-yl)-7-fluorobenzo[b]thiophene-3-carbonitrile]
< 5 µM: all assays above

C#Cc1c(F)ccc2cc(O)cc(-c3ccc4c(N5CCC6(CCN6C(=O)n6cncn6)C5)nc(OC[C@@]56CCCN5C[C@H](F)C6)nc4c3F)c12 (stereo partly drawn) [Compound 277, (6-(7-(8-ethynyl-7-fluoro-3-hydroxynaphthalen-1-yl)-8-fluoro-2-(((2R,7aS)-2-fluorotetrahydro-1H-pyrrolizin-7a(5H)-yl)methoxy)quinazolin-4-yl)-1,6-diazaspiro[3.4]octan-1-yl)(1H-1,2,4-triazol-1-yl)methanone]
< 5 µM: all assays above

N#Cc1c(N)sc2c(F)ccc(-c3c(Cl)cc4c(N5CCC6(CCN6C(=O)n6cnc(C(F)(F)F)n6)C5)nc(OC[C@@]56CCCN5C[C@H](F)C6)nc4c3F)c12 (stereo partly drawn) [Compound 292, 2-amino-4-(6-chloro-8-fluoro-2-(((2R,7aS)-2-fluorotetrahydro-1H-pyrrolizin-7a(5H)-yl)methoxy)-4-(1-(3-(trifluoromethyl)-1H-1,2,4-triazole-1-carbonyl)-1,6-diazaspiro[3.4]octan-6-yl)quinazolin-7-yl)-7-fluorobenzo[b]thiophene-3-carbonitrile]
< 5 µM: all assays above

N#Cc1cn(C(=O)N2CCC23CCN(c2nc(OC[C@@]45CCCN4C[C@H](F)C5)nc4c(F)c(-c5ccc(F)c6sc(N)c(C#N)c56)c(Cl)cc24)C3)cn1 (stereo partly drawn) [Compound 310, 1-(6-(7-(2-amino-3-cyano-7-fluorobenzo[b]thiophen-4-yl)-6-chloro-8-fluoro-2-(((2R,7aS)-2-fluorotetrahydro-1H-pyrrolizin-7a(5H)-yl)methoxy)quinazolin-4-yl)-1,6-diazaspiro[3.4]octane-1-carbonyl)-1H-imidazole-4-carbonitrile]
< 5 µM: all assays above

N#Cc1c(N)sc2c(F)ccc(-c3c(Cl)cc4c(N5CC[C@@]6(CCN6)C5)nc(OC[C@@]56CCCN5C[C@H](F)C6)nc4c3F)c12 [Compound 331, 2-amino-4-(6-chloro-8-fluoro-2-(((2R,7aS)-2-fluorotetrahydro-1H-pyrrolizin-7a(5H)-yl)methoxy)-4-((S)-1,6-diazaspiro[3.4]octan-6-yl)quinazolin-7-yl)-7-fluorobenzo[b]thiophene-3-carbonitrile]
< 5 µM: all assays above

N#Cc1c(N)sc2c(F)ccc(-c3c(Cl)cc4c(N5CCC6(CCN6C(=O)n6cnc(Cl)n6)C5)nc(OC[C@@]56CCCN5C[C@H](F)C6)nc4c3F)c12 (stereo partly drawn) [Compound 312, 2-amino-4-(6-chloro-4-(1-(3-chloro-1H-1,2,4-triazole-1-carbonyl)-1,6-diazaspiro[3.4]octan-6-yl)-8-fluoro-2-(((2R,7aS)-2-fluorotetrahydro-1H-pyrrolizin-7a(5H)-yl)methoxy)quinazolin-7-yl)-7-fluorobenzo[b]thiophene-3-carbonitrile]
< 5 µM: all assays above

Cc1nc(C)n(C(=O)N2CCC23CCN(c2nc(OC[C@@]45CCCN4C[C@H](F)C5)nc4c(F)c(-c5ccc(F)c6sc(N)c(C#N)c56)c(Cl)cc24)C3)n1 (stereo partly drawn) [Compound 226, 2-amino-4-(6-chloro-4-(1-(3,5-dimethyl-1H-1,2,4-triazole-1-carbonyl)-1,6-diazaspiro[3.4]octan-6-yl)-8-fluoro-2-(((2R,7aS)-2-fluorotetrahydro-1H-pyrrolizin-7a(5H)-yl)methoxy)quinazolin-7-yl)-7-fluorobenzo[b]thiophene-3-carbonitrile]
< 5 µM: all assays above

C[C@H](Oc1nc(N2CCC3(CCN3)C2)c2cc(Cl)c(-c3ccc(F)c4sc(N)c(C#N)c34)c(F)c2n1)[C@@H]1CCCN1C (stereo partly drawn) [Compound 213, 2-amino-4-(6-chloro-8-fluoro-2-((S)-1-((S)-1-methylpyrrolidin-2-yl)ethoxy)-4-(1,6-diazaspiro[3.4]octan-6-yl)quinazolin-7-yl)-7-fluorobenzo[b]thiophene-3-carbonitrile]
< 5 µM: all assays above

N#Cc1c(N)sc2c(F)ccc(-c3c(F)c4nc(OC[C@@]56CCCN5C[C@H](F)C6)nc(N5CCC6(CCN6)C5)c4c(=O)n3C3CC3)c12 (stereo partly drawn) [Compound 333, 2-amino-4-(6-cyclopropyl-8-fluoro-2-(((2R,7aS)-2-fluorotetrahydro-1H-pyrrolizin-7a(5H)-yl)methoxy)-5-oxo-4-(1,6-diazaspiro[3.4]octan-6-yl)-5,6-dihydropyrido[4,3-d]pyrimidin-7-yl)-7-fluorobenzo[b]thiophene-3-carbonitrile]
< 5 µM: all assays above

CN1CCC[C@H]1COc1nc(N2CCC3(CC2)NC(=O)NC3=O)c2cc(Cl)c(-c3cccc4sc(N)nc34)c(F)c2n1 [Compound 249, 8-(7-(2-aminobenzo[d]thiazol-4-yl)-6-chloro-8-fluoro-2-(((S)-1-methylpyrrolidin-2-yl)methoxy)quinazolin-4-yl)-1,3,8-triazaspiro[4.5]decane-2,4-dione]
< 5 µM: all assays above
